Measurements published in ChEMBL document CHEMBL5579899, “Discovery and In Vivo Exploration of 1,3,4-Oxadiazole and α-Fluoroacrylate Containing IL-17 Inhibitors” (J Med Chem, 2024).
In brackets after ≈: the same amount, converted by molar mass.

Tests used:
[1] = Equilibrium solubility of compound […] at pH 6.8 by high-throughput analysis; assay type: physicochemical
[2] = Apparent permeability coefficient of the compound across apical to basolateral side in dog MDCK cells by high-throughput analysis; assay type: ADME, cell-based, Canis lupus familiaris
[3] = Plasma clearance in Sprague-Dawley rat at 1 mg/kg,iv measured upto 24 hrs by LC-MS/MS analysis; assay type: ADME, organism-based
[4] = Metabolic stability in rat liver microsomes assessed as intrinsic clearance; assay type: ADME, Microsome; conditions: read-out: CLH
[5] = Lipophilicity, logD of compound at pH 7.4; assay type: physicochemical; conditions: buffer
[6] = AUC in Sprague-Dawley rat at 3 mg/kg,po measured upto 24 hrs by LC-MS/MS analysis; assay type: ADME, organism-based; conditions: in vivo; for AUC at 24 h: Sprague-Dawley; for AUC: po, 3 mg/kg, 24 h
[7] = Inhibition of IL-6 production in IL-17/TNF-alpha stimulated human NHDF cells incubated for 24 hrs by ELISA; assay type: functional, cell-based; conditions: 24 h
[8] = Metabolic stability in human liver microsomes assessed as intrinsic clearance; assay type: ADME, Microsome; conditions: read-out: CLH
[9] = Oral bioavailability in Sprague-Dawley rat at 3 mg/kg measured upto 24 hrs by LC-MS/MS analysis; assay type: ADME, organism-based; conditions: in vivo; for bioavailability: Sprague-Dawley; for F: po, 3 mg/kg, 24 h
[10] = Inhibition of biotinylated human IL-17A/AF647-labeled human IL-17RA protein-protein interaction preincubated for 30 mins with compound followed by addition of AF647-labeled human IL-17RA incubated for 90 min by TR-FRET assay
Rattus norvegicus = test: Antiarthritic activity in antigen-induced arthritis Lewis rat model assessed as reduction in knee swelling at 10 mg/kg,po bid administrated for 4 days; assay type: functional; parameters: scale not given: the % may be the effect or the level left; conditions: time 4 day
[11] = Hepatotoxicity in dog assessed as increase in serum liver enzyme at 50 mg/kg administration measured after 3 days; assay type: toxicity, organism-based, Canis lupus familiaris; conditions: in vivo, 72 h, time 3 day

Structure (SMILES) | solubility [1] [µM] | Papp A→B [2] [×10⁻⁶ cm/s] | clearance [3] [mL/min/kg] | microsomal CLint [4] [µL/min/mg] | logD [5] | AUC at 24 h [6] [µM·h] | IC50 [7] [nM] | microsomal CLint [8] [µL/min/mg] | bioavailability [9] [%] | IC50 [10] [nM] | AUC [6] [µM·h] | F [9] [%] | Activity (Rattus norvegicus) [%] | Activity [11]
COC[C@H](c1cnn2cc([C@@H](NC(=O)/C(F)=C3\CCOC3)C3CCC(F)(F)CC3)nc2c1)N1C[C@@H](C(F)(F)F)NC1=O | > 750 | 7.4 | 42 | 321 | 2.6 | 0.08 | 34 | 50 | 4 | 102 |  |  |  | 
COC[C@H](c1cnn2cc([C@@H](NC(=O)C(F)=C(C)C)C3CCC(F)(F)CC3)nc2c1)N1C[C@@H](C(F)(F)F)NC1=O | 340 (≈ 196 µg/mL) | 25 |  | > 1000 | 3.2 |  | 8 | 161 |  | 19 |  |  |  | 
C/C=C(/F)C(=O)N[C@H](c1cn2ncc([C@@H](COC)N3C[C@@H](C(F)(F)F)NC3=O)cc2n1)C1CCC(F)(F)CC1 | 600 (≈ 338 µg/mL) | 17 |  | 240 | 3 |  | 4 | 159 |  | 11 | 0.053 | 55 |  | 
COC[C@H](c1cnn2cc([C@@H](NC(=O)c3nonc3C)C3CCC(F)(F)CC3)nc2c1)N1C[C@@H](C(F)(F)F)NC1=O [LY-3509754] | 380 (≈ 223 µg/mL) | 11 | 24 | 20 | 3.1 | 5.43 | 4 | 32 | 119 | 10 |  |  |  | 
COC[C@H](c1cnn2cc([C@@H](Nc3noc(C(C)(F)F)n3)C3CCC(F)(F)CC3)nc2c1)N1C[C@@H](C(F)(F)F)NC1=O | 130 (≈ 79.1 µg/mL) | 20 |  | 33 | 3.7 |  | 27 | 49 |  | 30 |  |  |  | 
C/C=C(\F)C(=O)N[C@H](c1cn2ncc([C@@H](COC)N3C[C@@H](C(F)(F)F)NC3=O)cc2n1)C1CCC(F)(F)CC1 | 700 (≈ 394 µg/mL) | 9.7 |  | 166 | 3 |  | 7 | 90 |  | 19 |  |  |  | 
C=C(F)C(=O)N[C@H](c1cn2ncc([C@@H](COC)N3C[C@@H](C(F)(F)F)NC3=O)cc2n1)C1CCC(F)(F)CC1 | > 750 | 6.5 |  | 33 | 2.5 |  | 27 | 11 |  | 31 | 0.025 | 113 |  | 
COC[C@H](c1cnn2cc([C@@H](Nc3cc(OC)ncn3)C3CCC(F)(F)CC3)nc2c1)N1C[C@@H](C(F)(F)F)NC1=O | 700 (≈ 409 µg/mL) | 11 |  | 77 | 3.2 |  | 493 | 31 |  | 735 |  |  |  | 
COC[C@H](c1cnn2cc([C@@H](NC(=O)/C(F)=C\C3(F)CC3)C3CCC(F)(F)CC3)nc2c1)N1C[C@@H](C(F)(F)F)NC1=O | 560 (≈ 340 µg/mL) | 12 |  | 64 | 2.8 |  | 4 | 164 |  | 16 | 0.013 | 23 |  | 
COC[C@H](c1cnn2cc([C@@H](NC(=O)C(C)(F)F)C3CCC(F)(F)CC3)nc2c1)N1C[C@@H](C(F)(F)F)NC1=O | > 750 | 5.5 |  | 26 | 2.5 |  | 74 | 15 |  | 85 |  |  |  | 

Further lines, with some results ahead:

solubility [1] [µM] | Papp A→B [2] [×10⁻⁶ cm/s] | clearance [3] [mL/min/kg] | microsomal CLint [4] [µL/min/mg] | logD [5] | AUC at 24 h [6] [µM·h] | IC50 [7] [nM] | microsomal CLint [8] [µL/min/mg] | bioavailability [9] [%] | IC50 [10] [nM] | AUC [6] [µM·h] | F [9] [%] | Structure (SMILES) | Activity (Rattus norvegicus) [%] | Activity [11]
270 (≈ 165 µg/mL) | 8 |  | < 25 | 3.4 |  | 15 | < 10 |  | 25 |  |  | COC[C@H](c1cnn2cc([C@@H](Nc3nnc(C(F)(F)F)o3)C3CCC(F)(F)CC3)nc2c1)N1C[C@@H](C(F)(F)F)NC1=O |  | 
600 (≈ 335 µg/mL) | 3.3 |  | 156 | 2.9 |  | 75 | 42 |  | 62 |  |  | COC[C@H](c1cnn2cc([C@@H](Nc3cc(C)on3)C3CCC(F)(F)CC3)nc2c1)N1C[C@@H](C(F)(F)F)NC1=O |  | 
270 (≈ 158 µg/mL) | 17 |  | > 1000 | > 4.7 |  | 64 | 261 |  | 80 |  |  | COC[C@H](c1cnn2cc([C@@H](Nc3ncc(C4CC4)o3)C3CCC(F)(F)CC3)nc2c1)N1C[C@@H](C(F)(F)F)NC1=O |  | 
> 750 | 1.7 | 86 | 17 | 2.7 | 0.026 | 15 | < 25 | 2.5 | 53 |  |  | COC[C@H](c1cnn2cc([C@@H](Nc3nnc(C4CC4)o3)C3CCC(F)(F)CC3)nc2c1)N1C[C@@H](C(F)(F)F)NC1=O |  | 
> 750 | 0.5 |  | 28 | 1.9 |  | 49 | 23 |  | 85 |  |  | COC[C@H](c1cnn2cc([C@@H](Nc3nnc(C)o3)C3CCC(F)(F)CC3)nc2c1)N1C[C@@H](C(F)(F)F)NC1=O |  | 
400 (≈ 243 µg/mL) | 3.6 |  | 18 | 3 |  | 8 | 37 |  | 38 | 0.946 | 41 | COC[C@H](c1cnn2cc([C@@H](Nc3nnc(C(C)(F)F)o3)C3CCC(F)(F)CC3)nc2c1)N1C[C@@H](C(F)(F)F)NC1=O | 64 | 
200 (≈ 122 µg/mL) | 9.7 |  | 18 | 3.5 |  | 107 | 18 |  | 116 |  |  | COC[C@H](c1cnn2cc([C@@H](Nc3nc(C(C)(F)F)no3)C3CCC(F)(F)CC3)nc2c1)N1C[C@@H](C(F)(F)F)NC1=O |  | 
610 (≈ 350 µg/mL) | 1.3 |  | 75 | 2.5 |  | 45 | 50 |  | 61 |  |  | COC[C@H](c1cnn2cc([C@@H](Nc3nnc(C)s3)C3CCC(F)(F)CC3)nc2c1)N1C[C@@H](C(F)(F)F)NC1=O |  | 
> 750 | 0.4 |  | 13 | 1.5 |  | 2690 | 18 |  | 1820 |  |  | COC[C@H](c1cnn2cc([C@@H](Nc3nnc(C)n3C)C3CCC(F)(F)CC3)nc2c1)N1C[C@@H](C(F)(F)F)NC1=O |  | 
45 (≈ 27.2 µg/mL) | 10 | 56 | 37 | 3.9 | 0.569 | 6 | 66 | 41 | 21 |  |  | CC(F)(F)c1nnc(N[C@H](c2cn3ncc([C@@H](C4CC4)N4C[C@@H](C(F)(F)F)NC4=O)cc3n2)C2CCC(F)(F)CC2)o1 | 68 | Toxic
